Laboratory results reported in EPA's ToxRefDB 2.

How the values were obtained:
rat [1] = conditions: Subchronic oral toxicity in rodents, sprague dawley, Gavage/Intubation, dose end: 90 day
rat [2] = conditions: Combined chronic toxicity/carcinogenicity, sprague dawley, Oral, Gavage/Intubation, dose end: 104 week
mouse [3] = conditions: Carcinogenicity; cd1; Oral; Feed; dose end: 18 month; group: systemic; systemic / in life observation / body weight / body weight + systemic / in life observation / body weight / body weight gain
rat [4] = conditions: Multigenerational reproductive toxicity study, sprague dawley, Oral, Gavage/Intubation, dose end: 2 generation
rat [5] = conditions: Combined chronic toxicity/carcinogenicity, fischer, Oral, Gavage/Intubation, dose end: 105 week, group: systemic
rat [6] = conditions: Multigenerational reproductive toxicity study, sprague dawley, Oral, Gavage/Intubation, dose end: 2 generation; remark: listed apart in the source
mouse [7] = conditions: Combined chronic toxicity/carcinogenicity, b6c3f1, Oral, Gavage/Intubation, dose end: 104 week, group: systemic
mouse [8] = conditions: Subchronic oral toxicity in rodents, b6c3f1, Gavage/Intubation, dose end: 13 week, group: systemic
rat [9] = conditions: Subchronic oral toxicity in rodents, fischer, Gavage/Intubation, dose end: 13 week, group: systemic
rat [10] = conditions: Fertility (Segment I), sprague dawley, Oral, Gavage/Intubation, dose end: 0 day
rat [11] = conditions: Prenatal developmental toxicity study, sprague dawley, Oral, Gavage/Intubation, dose end: 15 GD
rabbit = conditions: Prenatal developmental toxicity study, new zealand white, Oral, Gavage/Intubation, dose end: 19 GD, group: maternal
[12] = group: cholinesterase, cholinesterase / cholinesterase / cholinesterase / plasma cholinesterase (che)
[13] = group: cholinesterase, cholinesterase / cholinesterase / cholinesterase / plasma cholinesterase (che) + cholinesterase / cholinesterase / cholinesterase / brain …
[14] = group: systemic, systemic / in life observation / clinical signs / pupillary function (dilation or constriction)
[15] = group: systemic, systemic / in life observation / clinical signs / pupillary function (dilation or constriction) + systemic / in life observation / body …
[16] = group: cholinesterase, cholinesterase / cholinesterase / cholinesterase / brain cholinesterase (che) + cholinesterase / cholinesterase / cholinesterase / plasma …
[17] = group: cholinesterase, cholinesterase / cholinesterase / cholinesterase / erythrocyte cholinesterase (che)
[18] = group: systemic, systemic / pathology microscopic / liver / adenoma/carcinoma combined
[19] = group: offspring, developmental / offspring survival late / lactation index / lactation index + developmental / offspring survival late / viability index / …
[20] = group: offspring, systemic / in life observation / body weight / offspring (pup) weight
[21] = group: reproductive, reproductive / reproductive performance / estrous cycle / corpora lutea
[22] = group: reproductive, reproductive / reproductive performance / estrous cycle / corpora lutea + reproductive / reproductive performance / fertility / fertility + …
[23] = systemic / pathology microscopic / kidney / mineralization + systemic / pathology microscopic / kidney / nephropathy
[24] = group: parental, systemic / in life observation / body weight / body weight + systemic / in life observation / body weight / dam weight + systemic / in life …
[25] = group: parental, systemic / in life observation / water consumption / water consumption + systemic / pathology gross / sperm measure / sperm morphology
[26] = group: reproductive, reproductive / offspring survival early / live fetuses / live fetuses
[27] = group: reproductive, reproductive / offspring survival early / live fetuses / live fetuses + reproductive / reproductive performance / gestational length / …
[28] = systemic / pathology microscopic / liver / eosinophilic focus + systemic / pathology microscopic / liver / clear cell focus
[29] = systemic / pathology microscopic / liver / eosinophilic focus + systemic / pathology microscopic / liver / clear cell focus + systemic / …
[30] = systemic / clinical chemistry / thyroxine (t4) / thyroxine (t4), total + systemic / hematology / reticulocyte / reticulocyte + systemic / …
[31] = systemic / in life observation / body weight / body weight + systemic / pathology gross / sperm measure / sperm motility
[32] = systemic / in life observation / body weight / body weight + systemic / pathology microscopic / pituitary gland / hyperplasia + systemic / …
[33] = group: maternal, reproductive / reproductive performance / fertility / fertility
[34] = group: parental, systemic / in life observation / body weight / body weight gain + systemic / in life observation / food consumption / food consumption + …
[35] = group: parental, systemic / pathology microscopic / testes / delayed spermiation, retained spermatids + systemic / pathology microscopic / testes / immature …
[36] = group: developmental, developmental / developmental malformation / ureter / distended
[37] = group: maternal, systemic / in life observation / clinical signs / general pallor + systemic / in life observation / clinical signs / pale and/or opaque eyes…
[38] = reproductive / offspring survival early / offspring survival early other / NOS

COC(=O)C=C(C)OP(=O)(OC)OC [Mevinphos]
LEL (rat [1]; [12]): 0.056 mg/kg/day | LOAEL (rat [1]; [12]): 0.056 mg/kg/day | NEL (rat [1]; [13]): 0.011 mg/kg/day | NOAEL (rat [1]; [13]): 0.011 mg/kg/day | LEL (rat [1]; [14]): 0.056 mg/kg/day | LOAEL (rat [1]; [14]): 0.056 mg/kg/day | NEL (rat [1]; [15]): 0.011 mg/kg/day | NOAEL (rat [1]; [15]): 0.011 mg/kg/day | LOAEL (rat [2]; [16]): 0.35 mg/kg/day | NOAEL (rat [2]; [16]): 0.025 mg/kg/day | LEL (rat [2]; [17]): 0.025 mg/kg/day | NEL (rat [2]; [17]): < 0.025 mg/kg/day | LEL (rat [2]; [18]): 0.6 mg/kg/day | LOAEL (rat [2]; [18]): > 0.6 mg/kg/day | NEL (rat [2]; [18]): 0.35 mg/kg/day | NOAEL (rat [2]; [18]): ≥ 0.6 mg/kg/day | LEL (mouse [3]): 3.7 mg/kg/day | LOAEL (mouse [3]): 3.7 mg/kg/day | NEL (mouse [3]): 1.5 mg/kg/day | NOAEL (mouse [3]): 1.5 mg/kg/day | LEL (rat [4]; [12]): 0.05 mg/kg/day | LOAEL (rat [4]; [12]): 0.05 mg/kg/day | NEL (rat [4]; [12]): < 0.05 mg/kg/day | NOAEL (rat [4]; [12]): < 0.05 mg/kg/day | LOAEL (rat [4]; [19]): > 0.5 mg/kg/day | NOAEL (rat [4]; [19]): ≥ 0.5 mg/kg/day | LEL (rat [4]; [20]): 0.05 mg/kg/day | NEL (rat [4]; [20]): < 0.05 mg/kg/day | NEL (rat [4]; group: parental, systemic / in life observation / clinical signs / ataxia + systemic / in life observation / clinical signs / oral discharge + systemic / in …): 0.1 mg/kg/day | NOAEL (rat [4]; group: parental, systemic / organ weight / ovary / relative to body weight + systemic / in life observation / body weight / body weight): 0.1 mg/kg/day | LOAEL (rat [4]; group: parental, systemic / organ weight / ovary / relative to body weight + systemic / organ weight / testes / absolute): 0.5 mg/kg/day | LEL (rat [4]; group: parental, systemic / organ weight / ovary / relative to body weight + systemic / organ weight / testes / absolute + systemic / in life observation / …): 0.5 mg/kg/day | NEL (rat [4]; [21]): 0.1 mg/kg/day | NOAEL (rat [4]; [21]): 0.1 mg/kg/day | LEL (rat [4]; [22]): 0.5 mg/kg/day | LOAEL (rat [4]; [22]): 0.5 mg/kg/day

O=C(O)c1cc(N=Nc2ccc(S(=O)(=O)Nc3ccccn3)cc2)ccc1O [Sulfasalazine]
NOAEL (rat [5]; systemic / organ weight / kidney / absolute + systemic / pathology microscopic / kidney / hyperplasia): 168 mg/kg/day | LOAEL (rat [5]; systemic / organ weight / kidney / absolute + systemic / pathology microscopic / kidney / hyperplasia + systemic / in life observation / …): 338 mg/kg/day | LEL (rat [5]; [23]): 84 mg/kg/day | NEL (rat [5]; [23]): < 84 mg/kg/day | LEL (rat [6]; [20]): 100 mg/kg/day | LOAEL (rat [6]; [20]): > 400 mg/kg/day | NEL (rat [6]; [20]): < 100 mg/kg/day | NOAEL (rat [6]; [20]): ≥ 400 mg/kg/day | LOAEL (rat [6]; [24]): > 400 mg/kg/day | NOAEL (rat [6]; [24]): ≥ 400 mg/kg/day | LEL (rat [6]; [25]): 100 mg/kg/day | NEL (rat [6]; [25]): < 100 mg/kg/day | LEL (rat [6]; [26]): 100 mg/kg/day | NEL (rat [6]; [26]): < 100 mg/kg/day | LOAEL (rat [6]; [27]): > 400 mg/kg/day | NOAEL (rat [6]; [27]): ≥ 400 mg/kg/day | LOAEL (mouse [7]; [28]): 675 mg/kg/day | NOAEL (mouse [7]; [28]): < 675 mg/kg/day | LEL (mouse [7]; [29]): 675 mg/kg/day | NEL (mouse [7]; [29]): < 675 mg/kg/day | LEL (mouse [8]; [30]): 675 mg/kg/day | NEL (mouse [8]; [30]): < 675 mg/kg/day | LOAEL (mouse [8]; systemic / pathology microscopic / liver / hypertrophy): 1350 mg/kg/day | NOAEL (mouse [8]; systemic / pathology microscopic / liver / hypertrophy + systemic / clinical chemistry / alanine aminotransferase (alt/sgpt) / alanine …): 675 mg/kg/day | LEL (rat [9]; [31]): 84 mg/kg/day | NEL (rat [9]; [31]): < 84 mg/kg/day | LOAEL (rat [9]; [32]): 338 mg/kg/day | NOAEL (rat [9]; [32]): 169 mg/kg/day | LEL (rat [10]; [33]): 600 mg/kg/day | LOAEL (rat [10]; [33]): > 600 mg/kg/day | NEL (rat [10]; [33]): 300 mg/kg/day | NOAEL (rat [10]; [33]): ≥ 600 mg/kg/day | LOAEL (rat [10]; [34]): > 600 mg/kg/day | NOAEL (rat [10]; [34]): ≥ 600 mg/kg/day | LEL (rat [10]; [35]): 150 mg/kg/day | NEL (rat [10]; [35]): < 150 mg/kg/day

O=C1c2ccccc2C(=O)C1C(=O)C(c1ccccc1)c1ccc(Cl)cc1 (centres undefined) [Chlorophacinone]
LEL (rat [11]; [36]): 0.0125 mg/kg/day | LOAEL (rat [11]; [36]): 0.0125 mg/kg/day | NEL (rat [11]; [36]): < 0.0125 mg/kg/day | NOAEL (rat [11]; [36]): < 0.0125 mg/kg/day | LEL (rat [11]; [37]): 0.1 mg/kg/day | LOAEL (rat [11]; [37]): 0.1 mg/kg/day | NEL (rat [11]; [37]): 0.05 mg/kg/day | NOAEL (rat [11]; [37]): 0.05 mg/kg/day | LOAEL (rabbit; [38]): 0.025 mg/kg/day | NOAEL (rabbit; [38]): 0.01 mg/kg/day | LEL (rabbit; reproductive / offspring survival early / offspring survival early other / NOS + systemic / in life observation / clinical signs / red or …): 0.025 mg/kg/day | NEL (rabbit; systemic / in life observation / clinical signs / red or crusty deposits around eyes, ears, nose, or mouth + systemic / in life observation…): 0.01 mg/kg/day
